# Assay results published in patent US12582632B2, “Inhibition of neurological injuries due to infections via administration of Butanetap and analogs thereof” (priority 2021, dated 2026).
# Assays:
# [1] = Double Alzheimer/Parkinson phase 2 clinical trial; assay type: in vivo, human
# Description: Three Phase I clinical studies have established butanetap's safety. […] Therefore, we conclude that a much lower single daily butanetap dose would be effective in the proposed study.
# [2] = test system: αSYN; assay type: in vivo, mice; conditions: 50 and 65 mg/kg for 21 days, FIG. 6
# [3] = test system: alpha-synuclein; test: alpha-synuclein in gut in vivo, PD A53T mice, Western blot
# Method: • A. FIG. 5, alpha-synuclein in vitro. […] On the left is a Western blot showing butanetap inhibition of aSYN in relation to Actin standard at concentrations of 0, 0.1, 1, 5 and 10 μM and on the right a graph showing the same data plotted for statistical analysis purposes. • B. FIG. 6, alpha-synuclein brain in vivo. […] The animals were only treated for 2 weeks, so in brain it takes butanetap only 2 weeks to lower levels of alpha-synuclein. • C. FIG. 7, alpha-synuclein in gut in vivo. Gut levels of aSYN following treatment of PD A53T mice with 10 mg/kg for 21 weeks and 21 days reduced αSYN levels in the gut as shown by Western Blot.
# [4] = test system: Immortalized Mouse Astrocytes—SV40T (IMA2.1); test: Gingipain cytotoxicity on astrocytes, AlamarBlue viability; assay type: cell-based; conditions: retest at much lower concentrations, 1 nM, FIG. 10
# Method: Immortalized Mouse Astrocytes—SV40T (IMA2.1), immortalized Mouse Microglia (SIM-A9) and immortalized neuroblastoma (SH-SY5Y) cells were infected for 48 hours with gingipains HRgpA and RgpB (arginine gingipains), and Kgp (lysine-specific cysteine proteinase—Lys-gingipain, KGP). After 48 hours the cells were assessed for viability with the AlamarBlue assay and the percentage of dead or alive cells versus control was plotted. […] As expected, since neither are dying, […]. […] Therefore, we expect the efficacious buntanetap dose to fight P. gingivalis infection to be the same as to treat Alzheimer's and Parkinson's disease has no impact on the microglia or neuroblastoma survival in the presence of gingipains.
# FIG. 10 show the results of retesting of the gingipain effect on astroglia at much lower concentrations.
# [5] = test system: Ts65dn mouse model of Down syndrome (DS); test: Ts65dn mouse model of Down syndrome; assay type: in vivo; conditions: Ts65dn mice
# Description: Butanetap's efficacy in treating neurodegeneration in animal models: Restored memory and learning in an APP/PS1 transgenic (tg) mouse model of AD; Restored memory and learning in a Ts65dn mouse model of Down syndrome (DS) [W. Mobley, UCSD, submitted 2020]; Preserved the retina in acute glaucoma [J Sundstrom; Hershey Medical School]; Restored colonic motility in a human SNCAA53T tg mouse model of PD (Kuo et. al., Am J Neurodegener Dis 2019; 8(1):1-15 www.AJND.us/ISSN:216 591X/AJND0086080: Translational inhibition of α-synuclein by Butanetap (Posiphen) normalizes distal colon motility in transgenic Parkinson mice); Preserved memory and learning in traumatic brain injury rats (M-F Chesselet, submitted 2020).
smiles,measurement,setting,value
"CN1CC[C@]2(C)c3cc(OC(=O)Nc4ccccc4)ccc3N(C)C12 (stereo partly drawn) [butanetap, (3aR)-1,3a,8-trimethyl-1,2,3,3a,8,8a-hexahydropyrrolo[2,3-b]indol-5-yl phenylcarbamate]",axonal and synaptic function,[1]; AD and PD patients,improved
same,inflammatory markers,[1]; AD and PD patients,reduced
same,neurotoxic protein biomarkers,[1]; AD and PD patients,reduced
same,blood brain barrier crossing,"[1]; AD and PD patients, once daily",crossed the blood brain barrier
same,cognition as measured by ADAS-Cog11 and WAIS coding speed,"[1]; AD patients, 80 mg QD, significant versus baseline, not versus placebo",improved
same,"motor function as measured by MDS-UPDRS (Part II, III, IV and total)","[1]; PD patients, 5, 10, 20, 40, 80 mg QD, maximum improvement for 10 & 20 mg",improved at all doses
same,WAIS speed and accuracy,"[1]; PD patients, significant versus placebo at 5, 20 and 80 mg",improved
same,αSYN in the brain,[2],reduced
same,reduction of alpha-synuclein levels in the gut,"[3]; 10 mg/kg for 21 weeks, p<0.05, FIG. 7",50.6%
same,significant reduction of alpha-synuclein levels in the gut,[3]; 10 mg/kg for 21 days,not at 21 days
same,protection of gingipain infected astrocytes,[4],completely protected
same,protection of gingipain infected astrocytes,[4]; listed as buntanetap,protects astrocytes at very low concentrations
same,memory and learning,[5],Restored
